Test results as given in PubChem BioAssay AID330 (DTP/NCI, 2004).
Where “and” joins values, the source holds several entries; their conditions need not be identical. Equal entries are not always repeated. Toxic doses and inconclusive results are not listed.

Tested on: P388 leukemia ip, CD2F1 mice, survival T/C
Assay: NCI In Vivo Anticancer Drug Screen. Data for tumor model P388 Leukemia (intraperitoneal) in CD2F1 (CDF1) mice
Conditions: endpoint: median survival time, higher = longer survival
Summary of the method: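 Mice carrying the transplanted tumor received test compound or vehicle. Survival was recorded in each group, and the value is the treated-group measurement divided by that of the vehicle-treated control group.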

[1] = dose: 50.0 mg/kg/injection, schedule: Q01DX009 (ip), vehicle: Klucel (hydroxypropylcellulose) (HPC)
[2] = dose: 50.0 mg/kg/injection, schedule: Q01DX005 (ip), vehicle: saline with Tween-80
[3] = dose: 100.0 mg/kg/injection, schedule: Q01DX005 (ip), vehicle: saline with Tween-80
[4] = dose: 200.0 mg/kg/injection, schedule: Q01DX005 (ip), vehicle: saline with Tween-80
[5] = dose: 50.0 mg/kg/injection, schedule: Q01DX005 (ip), vehicle: Klucel (hydroxypropylcellulose) (HPC)

Question: What does the source list for `Cc1cnc(Sc2ncccc2[N+](=O)[O-])nc1`?
Answer: T/C (dose: 50.0 mg/kg/injection, schedule: Q01DX009 (ip), vehicle: saline): 109 % of control; T/C (dose: 100.0 mg/kg/injection, schedule: Q01DX009 (ip), vehicle: saline): 109 % of control; T/C (dose: 200.0 mg/kg/injection, schedule: Q01DX009 (ip), vehicle: saline): 116 % of control

Question: How did the T/C (dose: 100.0 mg/kg/injection, schedule: Q04DX003 (ip), vehicle: saline with Tween-80) turn out when `CC(=O)NCC(=O)c1ccc(Cl)cc1` was run?
Answer: 120 % of control

Question: And the T/C (dose: 200.0 mg/kg/injection, schedule: Q04DX003 (ip), vehicle: saline with Tween-80)?
Answer: 120 % of control

Question: And the T/C (dose: 400.0 mg/kg/injection, schedule: Q04DX003 (ip), vehicle: saline with Tween-80)?
Answer: 105 % of control

Question: Which results are given for `COc1ccc2cc1Oc1ccc(cc1)C[C@H]1c3c(cc(OC)c(O)c3Oc3cc4c(cc3OC)CCN(C)[C@@H]4C2)CCN1C`?
Answer: T/C (dose: 25.0 mg/kg/injection, schedule: Q01DX001 (ip), vehicle: saline): 101 % of control; T/C (dose: 50.0 mg/kg/injection, schedule: Q01DX001 (ip), vehicle: saline): 106 % of control; T/C (dose: 100.0 mg/kg/injection, schedule: Q01DX001 (ip), vehicle: saline): 106 % of control; T/C (dose: 200.0 mg/kg/injection, schedule: Q01DX001 (ip), vehicle: saline): 100 % of control

Question: With `Nc1nc(N)c(-c2ccc(Cl)c(Cl)c2)c(CP(Cl)(Cl)(Cl)Br)n1` as the molecule, how does the T/C (dose: 6.25 mg/kg/injection, schedule: Q01DX009 (ip), vehicle: Klucel (hydroxypropylcellulose) (HPC)) read?
Answer: 96 % of control

Question: And the T/C (dose: 12.5 mg/kg/injection, schedule: Q01DX009 (ip), vehicle: Klucel (hydroxypropylcellulose) (HPC))?
Answer: 104 % of control

Question: And the T/C (dose: 25.0 mg/kg/injection, schedule: Q01DX009 (ip), vehicle: Klucel (hydroxypropylcellulose) (HPC))?
Answer: 109 % of control

Question: What about the T/C [1] of the same molecule?
Answer: 114 % of control

Question: `CCOC(=O)CCS(=O)c1ccccc1` (stereo not given) was tested. Which T/C [1] did it give?
Answer: 114 % of control

Question: And the T/C (dose: 100.0 mg/kg/injection, schedule: Q01DX009 (ip), vehicle: Klucel (hydroxypropylcellulose) (HPC))?
Answer: 109 % of control

Question: And the T/C (dose: 200.0 mg/kg/injection, schedule: Q01DX009 (ip), vehicle: Klucel (hydroxypropylcellulose) (HPC))?
Answer: 104 % of control

Question: For `CCOP(=O)(O)OCC.[Ga]`, which T/C (dose: 100.0 mg/kg/injection, schedule: Q04DX002 (ip), vehicle: saline with Tween-80) is on record?
Answer: 106 % of control

Question: And the T/C (dose: 200.0 mg/kg/injection, schedule: Q04DX002 (ip), vehicle: saline with Tween-80)?
Answer: 103 % of control

Question: What about the T/C (dose: 400.0 mg/kg/injection, schedule: Q04DX002 (ip), vehicle: saline with Tween-80) of the same molecule?
Answer: 97 % of control

Question: Which T/C (dose: 16.5 mg/kg/injection, schedule: Q01DX009 (ip), vehicle: saline with Tween-80) does the source give for `Nc1ccc2cc(Cl)ccc2c1` here?
Answer: 90 % of control

Question: Which T/C [2] does the source give for `O=C(c1ccc(Br)cc1)c1cnc2nc(-c3ccccc3)c(-c3ccccc3)nn12` here?
Answer: 91 % of control

Question: And the T/C [3]?
Answer: 96 % of control

Question: And the T/C [4]?
Answer: 96 % of control

Question: What does the source list for `CC(C)C1SCC(=O)N1N1C(=O)CSC1C(C)C` (stereo not given)?
Answer: T/C [2]: 94 % of control; T/C [3]: 93 % of control; T/C [4]: 98 % of control

Question: How did the T/C (dose: 2.34 mg/kg/injection, schedule: Q01DX005 (ip), vehicle: Klucel (hydroxypropylcellulose) (HPC)) turn out when `COc1cc(CCCOC2OC(COC3OCC(O)C(O)C3O)C(O)C(O)C2O)cc2cc(-c3ccc4c(c3)OCO4)oc12` (stereo not given) was run?
Answer: 95 % of control

Question: And the T/C (dose: 4.68 mg/kg/injection, schedule: Q01DX005 (ip), vehicle: Klucel (hydroxypropylcellulose) (HPC))?
Answer: 94 % of control

Question: What about the T/C (dose: 9.37 mg/kg/injection, schedule: Q01DX005 (ip), vehicle: Klucel (hydroxypropylcellulose) (HPC)) of the same molecule?
Answer: 98 % of control

Question: And the T/C (dose: 18.75 mg/kg/injection, schedule: Q01DX005 (ip), vehicle: Klucel (hydroxypropylcellulose) (HPC))?
Answer: 94 % of control

Question: Which results are given for `COc1ccc(N/N=C(/c2ccccc2)c2noc(-c3ccccc3)n2)cc1`?
Answer: T/C [5]: 101 % of control; T/C (dose: 100.0 mg/kg/injection, schedule: Q01DX005 (ip), vehicle: Klucel (hydroxypropylcellulose) (HPC)): 94 % of control; T/C (dose: 200.0 mg/kg/injection, schedule: Q01DX005 (ip), vehicle: Klucel (hydroxypropylcellulose) (HPC)): 93 % of control

Question: For `Cc1cc2cc(Cl)c(CN)cc2[nH]1`, which T/C (dose: 25.0 mg/kg/injection, schedule: Q04DX003 (ip), vehicle: Klucel (hydroxypropylcellulose) (HPC)) is on record?
Answer: 97 % of control

Question: And the T/C (dose: 50.0 mg/kg/injection, schedule: Q04DX003 (ip), vehicle: Klucel (hydroxypropylcellulose) (HPC))?
Answer: 102 % of control

Question: And the T/C (dose: 100.0 mg/kg/injection, schedule: Q04DX003 (ip), vehicle: Klucel (hydroxypropylcellulose) (HPC))?
Answer: 105 % of control and 107 % of control

Question: Which results are given for `COC1=C(C#N)C(c2ccccc2)CC(N)=N1` (stereo not given)?
Answer: T/C (dose: 60.0 mg/kg/injection, schedule: Q01DX005 (ip), vehicle: Klucel (hydroxypropylcellulose) (HPC)): 112 % of control; T/C (dose: 120.0 mg/kg/injection, schedule: Q01DX005 (ip), vehicle: Klucel (hydroxypropylcellulose) (HPC)): 94 % of control

Question: With `CC(C)=C1CC(C)(C)N2CCCC12` (stereo not given) as the molecule, how does the T/C [5] read?
Answer: 100 % of control
